These results are taken from patent US20240156973A1, “OSTEOTROPIC COMPOSITIONS AND USES THEREOF” (Purdue Research Foundation, priority 2021, published 2024).

The test system of assay [1] is male C57BL/6 mice with surgically induced femoral fracture. The assay can be described thus: Von Frey testing of evoked pain behavior after femoral fracture. It counts as in vivo. How it is done: FIG. 15 is bar graphs for 12-week-old C57BL/6 male mice that underwent a surgically created fracture and received 3×/wk injection of targeted SRT1720 (SQ, 2, 6, and 20 mg/kg/dose) or vehicle control.
(§1) Weekly X-rays were used to examine healing progression. Prior to euthanasia, mice underwent behavioral testing to measure evoked pain behaviors, Upon euthanasia, ex vivo μCT imaging (FIGS. 14A-14C) and analysis was completed to assess fracture callus size and composition.

Assay [2] has the same test system. In words: Surgically induced femoral fracture, X-ray and ex vivo µCT of callus. The assay is classed as in vivo. How it is done:
FIG. 14A are representative μCT images of femurs 3 weeks post-surgery from 12-week-old C57BL/6 male mice that underwent a surgically created fracture and received 3×/wk injection of targeted SRT1720 (SRT1720-Aspartic Acid Oligopeptide described herein; SQ, 6 mg/kg/dose) or vehicle control.
FIG. 14B is a bar graph showing μCT analysis of the mineralized callus volume (BV/TV) for each treatment group ([…], 2, 6, and 20 mg/kg/dose),
FIG. 14C is a bar graph showing μtCT analysis of the callus trabecular thickness (Tb.Th) within the callus region for each treatment group.
as §1

The target of assay [3] is T1, Thrombopoietin Receptor (TPOR) (Homo sapiens, UniProt P40238).
T1 sequence (P40238 26-491 limits assumed): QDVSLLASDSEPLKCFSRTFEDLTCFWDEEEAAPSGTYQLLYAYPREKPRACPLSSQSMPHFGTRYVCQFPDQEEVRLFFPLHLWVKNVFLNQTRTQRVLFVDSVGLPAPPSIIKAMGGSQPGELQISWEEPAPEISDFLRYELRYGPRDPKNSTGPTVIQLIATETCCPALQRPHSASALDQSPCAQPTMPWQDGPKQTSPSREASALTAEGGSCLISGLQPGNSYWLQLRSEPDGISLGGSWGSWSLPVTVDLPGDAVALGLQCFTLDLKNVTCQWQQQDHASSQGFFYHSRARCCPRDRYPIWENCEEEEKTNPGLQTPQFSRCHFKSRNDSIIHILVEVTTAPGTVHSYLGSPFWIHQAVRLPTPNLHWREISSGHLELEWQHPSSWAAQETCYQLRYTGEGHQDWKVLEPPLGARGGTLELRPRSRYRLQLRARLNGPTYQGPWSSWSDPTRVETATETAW
To be noted: TPOR binding; cysteine-containing peptides in cyclic form; cited from earlier work.

Assay [4] has as its system female Swiss Webster mice with midshaft femur fractures. In words: Midshaft femur fracture healing, micro-CT of fracture callus. It counts as in vivo. Particulars: three weeks. How it is done:
Fracture healing was assessed using micro-CT (Scanco Medical Ag or PerkinElmer). […] Morphometric parameters were quantified in an ROI that included just the fracture callus. […] Statistical analysis was performed using a one-way analysis of variance (ANOVA) and a Dunnett's post-hoc analysis with significance reported at the P value of 0.05. All animal experiments were performed in accordance with protocols approved by Purdue University's Institutional Animal Care and Use Committee (IACUC).

[5] abbreviates: 6 mg/kg, 3x/week, 3 weeks, p<0.05.
[6] abbreviates: all doses (2, 6, 20 mg/kg, 3x/week), 3 weeks post-surgery.

As for `O=C(Nc1ccccc1-c1cn2c(CN3CCNCC3)csc2n1)c1cnc2ccccc2n1` [SRT1720], the “paw withdrawal thresholds (evoked responses to tactile stimulus)” value in assay [1] (setting [5]) is “more robust and significant improvement”; in assay [1] (setting [6]) it was “increased paw withdrawal thresholds”. For the same compound, the bone healing result in assay [2] (6 mg/kg, 3x/week, 3 weeks) is reported as “accelerated bone healing”; in assay [2] (all doses (2, 6, 20 mg/kg, 3x/week, 3 weeks)) it was “improved healing”. Besides, the mineralized callus volume in assay [2] (setting [5]) is recorded as “significant increase in mineralized callus volume”. Consider GNADGPTLRQWLEGRRPKN [AF12359], for which, in assay [3], the half-maximal inhibitory concentration (IC50) (usually the point on the concentration scale where inhibition reaches its midpoint) is 66 nM. With GRVBDQIMLSLGG [AF12191], the IC50 in assay [3] is 20000 nM. As to “Ile-Glu-Gly-Pro-Thr-Leu-Arg-Gln-Npa-Leu-Ala-Ala-Arg-Sar [TMP]”, in assay [4] (untargeted TMP daily 0.1, 1 and 10 nmol s.c.), the “bone volume, dose-response shape” value is listed as “parabolic dosing window”. Besides, the “callus bone volume/total volume, dose-response shape” value in assay [4] (untargeted TMP daily 3.3, 33 and 330 nmol/kg s.c.) is “parabolic dosing window”. Moreover, in assay [4] (untargeted TMP daily s.c.), the “dose with maximum response on callus mineralization (bone volume)” value is recorded as 1 nmol/day and the “dose with maximum response on callus mineralization (bone volume/total volume)” value is 33 nmol/kg. Turning to “IEGPTLRQWLAARA-K-β-Ala-IEGPTLRQWLAARA [AF13948]”, the half-maximal inhibitory concentration (IC50) in assay [3] is 0.5 nM. For GGCTLREWLHGGFCGG [AF12192], the IC50 in assay [3] was 200 nM. Take LAIEGPTLRQWLHGNGPDT [AF12434]: the half-inhibitory concentration (IC50) in assay [3] is 20 nM. On to TIKGFTLRQWLKSREHTS [AF12405], for which the 50% inhibitory concentration (IC50) in assay [3] is 50 nM. GGCADGPTLREWISFCGG [AF12193]: the IC50 in assay [3] was 60 nM. As to IEGPTLRQWLAARA [AF12505], in assay [3], the half-inhibitory concentration (IC50) was 2 nM. Take `N[C@@H](CCC(=O)O)C(=O)N[C@@H](CCC(=O)O)C(=O)N[C@@H](CCC(=O)O)C(=O)N[C@@H](CCC(=O)O)C(=O)N[C@@H](CCC(=O)O)C(=O)N[C@@H](CCC(=O)O)C(=O)N[C@@H](CCC(=O)O)C(=O)N[C@@H](CCC(=O)O)C(=O)N[C@@H](CCC(=O)O)C(=O)N[C@@H](CCC(=O)O)C(=O)N[C@@H](CSSCCOC(=O)N1CCN(Cc2csc3nc(-c4ccccc4NC(=O)c4cnc5ccccc5n4)cn23)CC1)C(=O)O` [targeted SRT1720]: in assay [1] (setting [6]), the “paw withdrawal thresholds (evoked responses to tactile stimulus)” value is given as “improved mN forces”.
